Data set [1] concerns the target T1, Constitutive androstane receptor (CAR) (Homo sapiens, UniProt Q14994).
T1 construct: The pGL4-gtPBREM plasmid was transfected into Hep3B cells; endogenous in cells
T1 sequence (Q14994 1-352): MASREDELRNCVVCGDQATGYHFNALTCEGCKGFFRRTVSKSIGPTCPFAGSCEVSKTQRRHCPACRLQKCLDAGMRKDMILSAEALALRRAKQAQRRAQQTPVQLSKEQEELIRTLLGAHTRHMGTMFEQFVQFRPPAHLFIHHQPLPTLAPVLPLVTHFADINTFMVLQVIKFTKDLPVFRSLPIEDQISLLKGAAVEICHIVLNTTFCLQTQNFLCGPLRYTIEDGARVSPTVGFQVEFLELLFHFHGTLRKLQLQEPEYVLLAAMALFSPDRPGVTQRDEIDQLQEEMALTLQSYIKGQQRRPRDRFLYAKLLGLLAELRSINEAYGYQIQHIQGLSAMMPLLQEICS
Description: In vitro CAR activation screening assay (UGT1A1 promoter gtPBREM-pGL4 luciferase reporter in Hep3B-gtPBREM cells). It counts as cell-based. An excerpt: Until now, there is no commercially available high throughput screening method for CAR activation. Traditionally, CAR activation can be detected in western blots by its downstream signals such as UGT1A1, MRP2 or CYP2B6. […] However, this method was slow and pricy. In order to rapidly screen all the compounds for CAR activation at less cost, an in vitro CAR activation screening assay was developed: DNA was extracted from Hep3B cells and UGT1A1 promoter was obtained using PCR amplification. Ligation between UGT1A1 promoter and pGL4 vector was performed and the plasmid was amplified via E. coli replication. The desired plasmid was extracted from E. coli and transfected into Hep3B. The desired colony bearing UGT1A1 promoter-pGL4 plasmid was selected by neomycin. CAR activation was measured by adding tested compounds to Hep3B for several hours and luminescence was measured. Higher activation will get higher luminescence readout. This assay system was validated with two different CAR agonists: CITCO (direct agonist) and scoparone (an indirect agonist). […] Different concentration of scoparone at 1, 5, 10 and 20 μM had been tested either for luciferase assay or downstream UGT1A1 and MRP2 expression (data not shown) and 10 μM was selected to be the best condition for the following work.
After successfully establishing the in vitro assay, all of the coumarin compounds were subjected to the screening (at 10 μM) and their SAR was discussed. Although the reporter system can successfully identify CAR-activating compounds under 8 h and display better efficiency and sensitivity compared with western blots, it only presented a medium luciferase response. According to previous studies, CITCO was reported to only moderately enhance human CAR (less than 2-fold), compared with the enhance provided by TCPOBOP for murine CAR (5- to 10-fold) in luciferase reporter assays. […] Another possibility for the medium response in our reporter system might be the contribution of the whole gtPBREM element which might include response-suppressive elements that was used and the single nucleotide variation of DR3 element which was reported to slightly reduce the original UGT1A1 activity.
The genomic DNA was isolated from Hep3B cells using Wizard® Genomic DNA Purification Kit (Promega, Fitchburg, WI, USA). The promoter region of UGT1A1 gene, gtPBREM element, was amplified by AccuPrime^TM Taq DNA Polymerase High Fidelity Kit (Invitrogen, MA, USA). The sequence of the amplified element was confirmed by DNA sequencing company and cloned into pGL4 luciferase reporter vector. The pGL4-gtPBREM plasmid was transfected into Hep3B cells. The stable pGL4-gtPBREM transfected Hep3B cells, Hep3B-gtPBREM cells, were established after G418 selection. The luciferase activity represented of CAR activation ability was measured using individual established clone. Further, CAR-shRNA was obtained from the Genomic Research Center and transfected into Hep3B-gtPBREM cells. The transient transfected shCAR-Hep3B-gtPBREM cells were used for further luciferase assays.
The Hep3B-gtPBREM cells and shCAR-Hep3B-gtPBREM cells (1.5 × 10^5 cells/well) were seeded into 12-well plates for overnight then pre-determined concentration compounds were added for desired time. After treatment, transfected cells were washed twice in PBS, lysated with 1× passive lysis buffer and luciferase intensity of equal amount of cell lysate was measured by a Synergy HT Multi-Mode Microplate Reader (BioTek, Winooski, VT, USA).
(In general: Reporter assays use an easily measured gene product as a stand-in for the process of interest.)

A further data set concerns MRP2. Description: Protein expression of MRP2 (western blot). It counts as cell-based, human. The conditions noted are these: Figure 2; after scoparone or CITCO treatment. Here is the method: Figure 7 The protein expressions of MRP2 after 6,7-diprenoxycoumarin (50) treatment. Hep3B cell (1 × 10^6) were treated with 50 (5, 10, 20 and 40 μM) for 24 h. Treated cell lysates were prepared as described in the Methods section and the expression of MRP2 was analyzed by western blot.
(§1) 1 × 10^6 cells were seeded in a 10 cm plate, incubated at 37 °C for overnight and treated with various concentrations of compounds for the indicated times. After incubation, the culture medium was removed and washed twice with 2 mL ice-cold 1× PBS. Three hundred μL of protein lysis buffer (150 mM NaCl, 50 mM Tris-HCl (pH 7.4), 1% SDS, 1% Triton X-100, 1 mM PMSF) was added into each plate, scraped with a rubber policeman, collected into a premarked microtube and the incubated in ice for 1 h, sonicated by Ultrasonic Cell Disruptor for three time at 5 s each. The cell lysated was cleared by centrifugation at 12,000× g for 15 min at 4 °C. Supernatants were transferred into a fresh marked microtube and stored at −20 °C for future use.
(§2) Protein concentration of each sample was determined using a BCA Protein Assay Kit (Pirece®, Thermo Scientific). Different percentages of SDS-PAGE gels were prepared according to the molecular size of proteins of interest. After complete polymerization of stacking gels, each sample with equal amount of total protein was separated in polyacrylamide gels (stacking gel: 50 v, 60 min; separating gel: 100 v, 60 min). After separating, wet-transfer method was utilized to transfer proteins onto the PVDF membrane. The gels were assembled in the transfer sandwich and put in a transfer tank filled with transfer buffer (25 mM glycine, 0.15% ethanolamine, 20% methanol). The electro-transfer was performed at the voltage of 100 volt for 80 min at 4 °C. After transfer, PVDF-membrane was blocked with 5% BSA in 1× TBS-Tween at room temperature for 1 h. Membrane was washed with 10 mL 1× TBS-Tween three times and incubated with primary antibodies overnight at 4 °C with gentle agitation. […] The emitted fluorescence from the membrane was caught on a LAS-4000 biomolecule imager (FUJI.).

A further data set deals with UGT1A1. Description: Protein expression of UGT1A1 (western blot). In kind it is cell-based, human. Particulars: Figure 2; after scoparone or CITCO treatment. The protocol: as §1
as §2, with “agitation. After primary antibody was removed, the membrane was washed three times with 10 mL 1× TBS-Tween for 10 min at room temperature with constant shaking.” for “agitation.”
For orientation: Immunoblotting shows a protein as a band on a membrane.

The next data set has as its system human CAR. Also noted: method as in PMID 10757780, PMID 12611900. Particulars: cited from earlier work.
The nature of data set [2]: MTT cell cytotoxicity assay of coumarin derivatives. In kind it is cell-based. The conditions noted are these: human, Hep 3B cells, 72 h treatment. The protocol: The colorimetric assay for cellular growth and survivals described by Hansen et al. with modifications. The MTT (3-(4,5-cimethylthiazol-2yl)-2,5-diphenyltetrazolium bromide, Sigma-Aldrich Inc., Germany) assay was utilized to determine the IC50 value of each compound. Cells (5000 cells/well) were seeded into 96-well plates for 24 h and subsequently the cells were treated with vehicle or tested compounds at pre-determined concentration. After 72 h treatment, MTT solution was added to the final concentration of 0.5 mg/mL and continue cultured for 2 h at 37 °C. Afterward, the cells were lysed with lysis buffer (40% DMF and 20% SDS in H2O) overnight at 37 °C to lysate the cells. The absorbance at 570 nm was then detected by a microplate reader and the IC50 value was calculated.
In general terms: Tetrazolium assays rely on reduction of a dye to a coloured formazan, in cell work by metabolically active cells.

The test system of the next data set is murine CAR. More on the design: method as in PMID 10757780, PMID 12611900. Particulars: cited from earlier work.

With `Clc1ccc(-c2nc3sccn3c2/C=N/OCc2ccc(Cl)c(Cl)c2)cc1` [CITCO, 6-(4-Chlorophenyl) imidazo [2,1-b] [1, 3] thiazole-5-carbaldehyde O-(3,4-dichlorobenzyl) oxime, reference compound], in data set [1] (assay validation, direct agonist), the “elevation of luciferase activity” value is given as “about 50%”. Also, the “protein expression of MRP2 (CAR downstream gene)” value in the data set on MRP2 was “upregulated”. Besides, the “protein expression of UGT1A (CAR downstream gene)” value in the data set with UGT1A1 is listed as “upregulated”. In addition, the “enhancement of human CAR in luciferase reporter assays” value with human CAR is reported as “less than 2 fold”.
On to `CCCCCOc1cc2ccc(=O)oc2cc1OCCCCC` [Compound 47, 6,7-Dipentoxycoumarin], for which the melting point is 57 to 59 °C. Also, the activation at 10 µM in data set [1] (Table 2, 10 μM, (luminescence of compound − luminescence of scoparone)/luminescence of scoparone × 100%, read-out: CAR Activation Fold) was -10%. The half-maximal inhibitory concentration (IC50) at 72 h in data set [2] came out at 31 µM.
As for `Clc1cnc(Oc2ccc(Oc3ncc(Cl)cc3Cl)cc2)c(Cl)c1` [TCPOBOP], the “enhancement of murine CAR in luciferase reporter assays” value with murine CAR was 5- to 10 fold.

The IC50 is the concentration that inhibits the measured activity by half. A low value points to inhibition by little substance. As a reminder, the melting point is the temperature, or range, at which the solid turns liquid.

These data come from paper PMC7796031, “Studies of Coumarin Derivatives for Constitutive Androstane Receptor (CAR) Activation” (Molecules, 2020).
